# According to patent US20250179103A1, “6-OXODECAHYDROPYRROLO[1,2-A][1,5]DIAZOCINE AND 6-OXODECAHYDRO-4H-PYRROLO[2,1-D][1,5]THIAZOCINE DERIVATIVES AS STAT3 AND STAT6 MODULATORS FOR THE TREATMENT OF CANCER AND INFLAMMATORY CONDITIONS” (Recludix Pharma, Inc., priority 2022, published 2025):
# How the values were obtained:
# [1] = molecular target: T1, Recombinant STAT6 protein (STAT6(W123-T658)) (Homo sapiens, UniProt P42226); experiment: STAT6 Fluorescence Polarization (FP) Assay; type: binding; conditions: STAT6(W123-T658) 250 nM, probe 5-FAM-ApYKPFQDLI-NH2 2 nM, 45-minute incubation
# T1 construct: Recombinant STAT6 protein (STAT6(W123-T658))
# T1 sequence (P42226 123-658): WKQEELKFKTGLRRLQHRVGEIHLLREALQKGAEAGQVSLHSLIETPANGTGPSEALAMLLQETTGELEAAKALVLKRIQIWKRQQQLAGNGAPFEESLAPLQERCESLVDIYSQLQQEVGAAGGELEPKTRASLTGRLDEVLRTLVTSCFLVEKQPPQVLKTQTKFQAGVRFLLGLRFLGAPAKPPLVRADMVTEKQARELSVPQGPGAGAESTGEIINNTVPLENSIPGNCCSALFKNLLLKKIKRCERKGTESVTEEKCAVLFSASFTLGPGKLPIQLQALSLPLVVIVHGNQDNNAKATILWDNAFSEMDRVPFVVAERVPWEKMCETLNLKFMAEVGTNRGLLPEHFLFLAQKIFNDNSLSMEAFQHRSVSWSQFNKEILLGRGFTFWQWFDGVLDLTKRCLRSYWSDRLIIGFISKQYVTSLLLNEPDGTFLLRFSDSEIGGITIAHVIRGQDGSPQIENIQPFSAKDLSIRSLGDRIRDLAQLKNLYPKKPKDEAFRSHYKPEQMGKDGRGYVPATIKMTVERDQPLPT
# Summary of the method: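 Displacement of a fluorescent phosphotyrosine peptide (5-FAM-ApYKPFQDLI-NH2, 2 nM) from STAT6(W123-T658) (250 nM), 1% DMSO, pH 7.4 HEPES buffer. After 45 min at room temperature, polarization (mP) was plotted versus log compound concentration and fitted by nonlinear regression to give IC50.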
# [2] = molecular target: T2, Recombinant STAT3 protein (STAT3(G127-I722)) (Homo sapiens, UniProt P40763); experiment: STAT3 Fluorescence Polarization (FP) Assay; type: binding; conditions: STAT3(G127-I722) 25 nM, probe 5-FAM-GpYLPQTV-NH2 2 nM, 45-minute incubation
# T2 construct: Recombinant STAT3 protein (STAT3(G127-I722))
# Summary of the method: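 STAT3(G127-I722), 25 nM, was mixed with 2 nM 5-FAM-GpYLPQTV-NH2 probe in HEPES pH 7.4 buffer with 1% DMSO and serially diluted compound. FP (mP) was read after 45 min at room temperature. IC50 came from nonlinear regression.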
# T2 sequence (P40763 127-722): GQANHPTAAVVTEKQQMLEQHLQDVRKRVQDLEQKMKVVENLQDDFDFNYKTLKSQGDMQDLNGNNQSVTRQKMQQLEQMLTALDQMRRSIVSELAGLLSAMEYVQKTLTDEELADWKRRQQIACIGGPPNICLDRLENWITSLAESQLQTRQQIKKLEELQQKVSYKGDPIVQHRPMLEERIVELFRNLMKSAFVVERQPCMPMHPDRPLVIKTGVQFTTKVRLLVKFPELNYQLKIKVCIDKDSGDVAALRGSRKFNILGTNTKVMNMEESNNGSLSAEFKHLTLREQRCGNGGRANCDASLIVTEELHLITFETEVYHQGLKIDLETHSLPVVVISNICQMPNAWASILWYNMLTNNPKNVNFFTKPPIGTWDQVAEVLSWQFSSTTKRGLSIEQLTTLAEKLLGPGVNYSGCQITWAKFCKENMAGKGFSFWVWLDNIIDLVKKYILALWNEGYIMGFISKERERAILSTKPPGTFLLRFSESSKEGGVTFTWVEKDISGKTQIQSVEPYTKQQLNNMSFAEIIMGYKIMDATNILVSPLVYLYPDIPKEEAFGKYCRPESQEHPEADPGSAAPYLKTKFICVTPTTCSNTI
IC50 [1],IC50 [2],SMILES
300 to 3000 nM,1000 to 10000 nM,"CCN1CC[C@H]2CC[C@@H](C(=O)N3C[C@@H](C#N)[C@H](c4ccccc4)C3)N2C(=O)[C@@H](NC(=O)c2ccc3ccc(C(F)(F)P(=O)(O)O)cc3c2)C1 (single isomer, unassigned) [Compound 243, ((7-(((5S,8S,10aR)-8-((3S,4R or 3R,4S)-3-cyano-4-phenylpyrrolidine-1-carbonyl)-3-ethyl-6-oxodecahydropyrrolo[1,2-a][1,5]diazocin-5-yl)carbamoyl)naphthalen-2-yl)difluoromethyl)phosphonic acid]"
300 to 3000 nM,100 to 1000 nM,"NC(=O)[C@@H]1CN(C(=O)[C@@H]2CC[C@@H]3CCN(CC(F)F)C[C@H](NC(=O)c4cc5cc(C(F)(F)P(=O)(O)O)ccc5s4)C(=O)N32)C[C@H]1c1ccccc1 (single isomer, unassigned) [Compound 245, ((2-(((5S,8S,10aR)-8-((3S,4R or 3R,4S)-3-carbamoyl-4-phenylpyrrolidine-1-carbonyl)-3-(2,2-difluoroethyl)-6-oxodecahydropyrrolo[1,2-a][1,5]diazocin-5-yl)carbamoyl)benzo[b]thiophen-5-yl)difluoromethyl)phosphonic acid]"
≤ 300 nM,100 to 1000 nM,"COC(=O)[C@@H]1CN(C(=O)[C@@H]2CC[C@@H]3CCN(CC(F)F)C[C@H](NC(=O)c4cc5cc(C(F)(F)P(=O)(O)O)ccc5s4)C(=O)N32)C[C@H]1c1ccccc1 (single isomer, unassigned) [Compound 247, ((2-(((5S,8S,10aR)-3-(2,2-difluoroethyl)-8-((3S,4R or 3R,4S)-3-(methoxycarbonyl)-4-phenylpyrrolidine-1-carbonyl)-6-oxodecahydropyrrolo[1,2-a][1,5]diazocin-5-yl)carbamoyl)benzo[b]thiophen-5-yl)difluoromethyl)phosphonic acid]"
≤ 300 nM,1000 to 10000 nM,"N#C[C@@H]1CN(C(=O)[C@@H]2CC[C@@H]3CCN(CC(F)F)C[C@H](NC(=O)c4ccc5ccc(C(F)(F)P(=O)(O)O)cc5c4)C(=O)N32)C[C@H]1c1ccccc1 (single isomer, unassigned) [Compound 248, ((7-(((5S,8S,10aR)-8-((3S,4R or 3R,4S)-3-cyano-4-phenylpyrrolidine-1-carbonyl)-3-(2,2-difluoroethyl)-6-oxodecahydropyrrolo[1,2-a][1,5]diazocin-5-yl)carbamoyl)naphthalen-2-yl)difluoromethyl)phosphonic acid]"
≤ 300 nM,1000 to 10000 nM,"Cc1ccc2onc(C(=O)N3CC[C@H]4CC[C@@H](C(=O)N5C[C@@H](C#N)[C@H](c6ccccc6)C5)N4C(=O)[C@@H](NC(=O)c4ccc5ccc(C(F)(F)P(=O)(O)O)cc5c4)C3)c2c1 (single isomer, unassigned) [Compound 375]"
300 to 3000 nM,> 10000 nM,"CC(=O)N1CC[C@H]2CC[C@@H](C(=O)N(C)c3ccc(C(C)(C)C#N)cc3)N2C(=O)[C@@H](NC(=O)c2cc3cc(C(F)(F)P(=O)(O)O)ccc3s2)C1 [Compound 2, ((2-(((5S,8S,10aR)-3-acetyl-8-((4-(2-cyanopropan-2-yl)phenyl)(methyl)carbamoyl)-6-oxodecahydropyrrolo[1,2-a][1,5]diazocin-5-yl)carbamoyl)benzo[b]thiophen-5-yl)difluoromethyl)phosphonic Acid]"
300 to 3000 nM,1000 to 10000 nM,"CN(C(=O)[C@@H]1CC[C@@H]2CCN(C(=O)Cc3ccccc3)C[C@H](NC(=O)c3cc4cc(C(F)(F)P(=O)(O)O)ccc4[nH]3)C(=O)N21)c1ccccc1 [Compound 3, (difluoro(2-(((5S,8S,10aR)-8-(methyl(phenyl)carbamoyl)-6-oxo-3-(2-phenylacetyl)decahydropyrrolo[1,2-a][1,5]diazocin-5-yl)carbamoyl)-1H-indol-5-yl)methyl)phosphonic acid]"
